Source: PubChem BioAssay (NCI)
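Abbreviation: GI50, concentration required for 50% inhibition of growth. Definition used: TGI = concentration required for complete inhibition of growth.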

Experiments:
Assay in all cases: growth of human tumour cells (NCI), 384-well format
786-0 renal = test system: 786-0 renal
A498 renal = test system: A498 renal
A549 NSCLC = test system: A549 NSCLC
ACHN renal = test system: ACHN renal
BT-549 breast = test system: BT-549 breast
CAKI-1 renal = test system: CAKI-1 renal
CCRF-CEM leukemia = test system: CCRF-CEM leukemia
COLO 205 colon = test system: COLO 205 colon
DU-145 prostate = test system: DU-145 prostate
EKVX NSCLC = test system: EKVX NSCLC
HCC-2998 colon = test system: HCC-2998 colon
HCT-116 colon = test system: HCT-116 colon
HCT-15 colon = test system: HCT-15 colon
HL-60(TB) leukemia = test system: HL-60(TB) leukemia
HOP-62 NSCLC = test system: HOP-62 NSCLC
HOP-92 NSCLC = test system: HOP-92 NSCLC
HS 578T breast = test system: HS 578T breast
HT29 colon = test system: HT29 colon
IGROV1 ovarian = test system: IGROV1 ovarian
K-562 leukemia = test system: K-562 leukemia
KM12 colon = test system: KM12 colon
LOX IMVI melanoma = test system: LOX IMVI melanoma
M14 melanoma = test system: M14 melanoma
MALME-3M melanoma = test system: MALME-3M melanoma
MCF7 breast = test system: MCF7 breast
MDA-MB-435 melanoma = test system: MDA-MB-435 melanoma
MDA-MB-468 breast = test system: MDA-MB-468 breast
MOLT-4 leukemia = test system: MOLT-4 leukemia
NCI-H226 lung = test system: NCI-H226 lung
NCI-H23 lung = test system: NCI-H23 lung
NCI-H322M lung = test system: NCI-H322M lung
NCI-H460 NSCLC = test system: NCI-H460 NSCLC
NCI-H522 lung = test system: NCI-H522 lung
NCI/ADR-RES ovarian = test system: NCI/ADR-RES ovarian
OVCAR-3 ovarian = test system: OVCAR-3 ovarian
OVCAR-4 ovarian = test system: OVCAR-4 ovarian
OVCAR-8 ovarian = test system: OVCAR-8 ovarian
PC-3 prostate = test system: PC-3 prostate
RPMI-8226 leukemia = test system: RPMI-8226 leukemia
RXF 393 renal = test system: RXF 393 renal
SF-268 CNS = test system: SF-268 CNS
SF-295 CNS = test system: SF-295 CNS
SF-539 CNS = test system: SF-539 CNS
SK-MEL-2 melanoma = test system: SK-MEL-2 melanoma
SK-MEL-28 melanoma = test system: SK-MEL-28 melanoma
SK-MEL-5 melanoma = test system: SK-MEL-5 melanoma
SK-OV-3 ovarian = test system: SK-OV-3 ovarian
SN12C renal = test system: SN12C renal
SNB-19 CNS = test system: SNB-19 CNS
SNB-75 CNS = test system: SNB-75 CNS
SW-620 colon = test system: SW-620 colon
TK-10 renal = test system: TK-10 renal
U251 glioblastoma = test system: U251 glioblastoma
UACC-257 melanoma = test system: UACC-257 melanoma
UACC-62 melanoma = test system: UACC-62 melanoma

Cc1ccc(S(=O)(=O)Oc2ccc3sc4cccc(NCCN(C)C)c4c(=O)c3c2)cc1
GI50 ([…]-0 renal): > 100 µM | TGI (786-0 renal): > 100 µM | GI50 (A498 renal): > 100 µM | TGI (A498 renal): > 100 µM | GI50 (A549 NSCLC): 1.85 µM | TGI (A549 NSCLC): 3.34 µM | GI50 (ACHN renal): 1.73 µM | TGI (ACHN renal): 3.14 µM | GI50 (BT-549 breast): 1.86 µM | TGI (BT-549 breast): 3.28 µM | GI50 (CAKI-1 renal): 1.65 µM | TGI (CAKI-1 renal): 3.04 µM | GI50 (CCRF-CEM leukemia): 1.7 µM | TGI (CCRF-CEM leukemia): 3.11 µM | GI50 (COLO 205 colon): 1.94 µM | TGI (COLO 205 colon): 3.4 µM | GI50 (DU-145 prostate): 1.97 µM | TGI (DU-145 prostate): 3.43 µM | GI50 (EKVX NSCLC): 1.85 µM | TGI (EKVX NSCLC): 3.28 µM | GI50 (HCC-2998 colon): 1.24 µM | TGI (HCC-2998 colon): 2.51 µM | GI50 (HCT-116 colon): 1.83 µM | TGI (HCT-116 colon): 3.3 µM | GI50 (HCT-15 colon): > 100 µM | TGI (HCT-15 colon): > 100 µM | GI50 (HL-60(TB) leukemia): 0.787 µM | TGI (HL-60(TB) leukemia): 2.06 µM | GI50 (HOP-62 NSCLC): 2.1 µM | TGI (HOP-62 NSCLC): 3.56 µM | GI50 (HOP-92 NSCLC): 1.9 µM | TGI (HOP-92 NSCLC): 3.32 µM | GI50 (HS 578T breast): 1.92 µM | TGI (HS 578T breast): 3.35 µM | GI50 (HT29 colon): 1.71 µM | TGI (HT29 colon): 3.1 µM | GI50 (IGROV1 ovarian): 1.65 µM | TGI (IGROV1 ovarian): 3.01 µM | GI50 (K-562 leukemia): 1.91 µM | TGI (K-562 leukemia): 3.33 µM | GI50 (KM12 colon): 1.79 µM | TGI (KM12 colon): 3.23 µM | GI50 (LOX IMVI melanoma): 1.78 µM | TGI (LOX IMVI melanoma): 3.2 µM | GI50 (M14 melanoma): 2.05 µM | TGI (M14 melanoma): 3.49 µM | GI50 (MALME-3M melanoma): 1.89 µM | TGI (MALME-3M melanoma): 3.31 µM | GI50 (MCF7 breast): 1.38 µM | TGI (MCF7 breast): 2.71 µM | GI50 (MDA-MB-435 melanoma): 1.78 µM | TGI (MDA-MB-435 melanoma): 3.18 µM | GI50 (MDA-MB-468 breast): 2.49 µM | TGI (MDA-MB-468 breast): 3.96 µM | GI50 (MOLT-4 leukemia): 1.59 µM | TGI (MOLT-4 leukemia): 2.95 µM | GI50 (NCI-H226 lung): 1.7 µM | TGI (NCI-H226 lung): 3.08 µM | GI50 (NCI-H23 lung): 1.99 µM | TGI (NCI-H23 lung): 3.42 µM | GI50 (NCI-H322M lung): 2.03 µM | TGI (NCI-H322M lung): 3.48 µM | GI50 (NCI-H460 NSCLC): 1.72 µM | TGI (NCI-H460 NSCLC): 3.22 µM | GI50 (NCI-H522 lung): > 100 µM | TGI (NCI-H522 lung): > 100 µM | GI50 (NCI/ADR-RES ovarian): 1.83 µM | TGI (NCI/ADR-RES ovarian): 3.24 µM | GI50 (OVCAR-3 ovarian): 1.91 µM | TGI (OVCAR-3 ovarian): 3.33 µM | GI50 (OVCAR-4 ovarian): > 100 µM | TGI (OVCAR-4 ovarian): > 100 µM | GI50 (OVCAR-8 ovarian): 2.11 µM | TGI (OVCAR-8 ovarian): 3.59 µM | GI50 (PC-3 prostate): 1.81 µM | TGI (PC-3 prostate): 3.22 µM | GI50 (RPMI-8226 leukemia): 2.28 µM | TGI (RPMI-8226 leukemia): 3.75 µM | GI50 (RXF 393 renal): 1.93 µM | TGI (RXF 393 renal): 3.36 µM | GI50 (SF-268 CNS): 2.2 µM | TGI (SF-268 CNS): 3.67 µM | GI50 (SF-295 CNS): > 100 µM | TGI (SF-295 CNS): > 100 µM | GI50 (SF-539 CNS): 1.86 µM | TGI (SF-539 CNS): 3.29 µM | GI50 (SK-MEL-2 melanoma): 1.99 µM | TGI (SK-MEL-2 melanoma): 3.42 µM | GI50 (SK-MEL-28 melanoma): 1.95 µM | TGI (SK-MEL-28 melanoma): 3.38 µM | GI50 (SK-MEL-5 melanoma): 1.29 µM | TGI (SK-MEL-5 melanoma): 2.58 µM | GI50 (SK-OV-3 ovarian): 1.64 µM | TGI (SK-OV-3 ovarian): 3.02 µM | GI50 (SN12C renal): 1.91 µM | TGI (SN12C renal): 3.33 µM | GI50 (SNB-19 CNS): 2.08 µM | TGI (SNB-19 CNS): 3.54 µM | GI50 (SNB-75 CNS): 2.09 µM | TGI (SNB-75 CNS): 3.53 µM | GI50 (SW-620 colon): 1.88 µM | TGI (SW-620 colon): 3.35 µM | GI50 (TK-10 renal): > 100 µM | TGI (TK-10 renal): > 100 µM | GI50 (U251 glioblastoma): 2.07 µM | TGI (U251 glioblastoma): 3.54 µM | GI50 (UACC-257 melanoma): 1.89 µM | TGI (UACC-257 melanoma): 3.3 µM | GI50 (UACC-62 melanoma): 1.94 µM | TGI (UACC-62 melanoma): 3.38 µM
